Test results taken from PMC8286840, “Identifying SARS-CoV-2 antiviral compounds by screening for small molecule inhibitors of Nsp3 papain-like protease” (Biochemical Journal, 2021).
Where a name gives a salt, the structure may show the parent alone. Read-outs that look alike come from different tables or passages of the source. Where a SMILES comes first, the peptide text is derived from it.

Tests used:
[1] = biological target: T1, SARS-CoV-2 PLpro (nsp3 1564–1878) (Severe acute respiratory syndrome coronavirus 2, UniProt P0DTD1); test: biochemical; set-up: FRET-quenched peptide (Pro3) cleavage by PLpro, 10 min pre-incubation, slope over 20 min, normalised to no-compound control; conditions: read-out: % of control remaining
[2] = biological target: T1, SARS-CoV-2 PLpro (nsp3 1564–1878); test: biochemical; set-up: FRET-quenched peptide (Pro3) cleavage by PLpro, 10 min pre-incubation, slope over 20 min, normalised to no-compound control; conditions: read-out: % of control remaining; remark: listed apart in the source

Compound: CC(C)=CCC[C@](C)(O[C@@H]1O[C@H](CO[C@@H]2O[C@@H](CO)[C@H](O)[C@H]2O)[C@@H](O)[C@H](O)[C@H]1O)[C@H]1CC[C@]2(C)[C@@H]1[C@H](O)C[C@@H]1[C@@]3(C)CC[C@H](O[C@@H]4O[C@H](CO)[C@@H](O)[C@H](O)[C@H]4O[C@@H]4O[C@H](CO)[C@@H](O)[C@H](O)[C@H]4O)C(C)(C)[C@@H]3CC[C@]12C [Ginsenoside Rc]
- remaining activity at 3.75 µM ([1]; Well no.=6436, high concentration screen): 92.6%
- remaining activity at 1.25 µM ([2]; Well no.=6436, low concentration screen): 93.3%

Compound: CC(C)=CCC[C@](C)(O)[C@H]1CC[C@]2(C)[C@@H]1[C@H](O)C[C@@H]1[C@@]3(C)CC[C@H](O)C(C)(C)[C@@H]3[C@@H](O[C@@H]3O[C@H](CO)[C@@H](O)[C@H](O)[C@H]3O)C[C@]12C [Ginsenoside Rh1]
- remaining activity at 3.75 µM ([1]; Well no.=6546, high concentration screen): 93.7%
- remaining activity at 1.25 µM ([2]; Well no.=6546, low concentration screen): 98.2%

Compound: CC(C)=CCC[C@](C)(O)[C@H]1CC[C@]2(C)[C@@H]1[C@H](O)C[C@@H]1[C@@]3(C)CC[C@H](O[C@@H]4O[C@H](CO)[C@@H](O)[C@H](O)[C@H]4O)C(C)(C)[C@@H]3CC[C@]12C [Ginsenoside Rh2]
- remaining activity at 3.75 µM ([1]; Well no.=6590, high concentration screen): 102%
- remaining activity at 1.25 µM ([2]; Well no.=6590, low concentration screen): 98.4%

Compound: C[C@]12CC[C@H](O)C[C@H]1CC[C@@H]1[C@@H]2CC[C@]2(C)[C@@H](C3=CC(=O)OC3)[C@@H](O)C[C@]12O [Gitoxigenin]
- remaining activity at 3.75 µM [1]: 104%
- remaining activity at 1.25 µM [2]: 105%

Compound: CC(C)(C)[C@@H]1NC(=O)O[C@@H]2CCC[C@H]2OC/C=C/C(F)(F)c2nc3ccccc3nc2O[C@@H]2C[C@@H](C(=O)N[C@]3(C(=O)NS(=O)(=O)C4(C)CC4)C[C@H]3C(F)F)N(C2)C1=O [Glecaprevir]
- remaining activity at 3.75 µM ([1]; Well no.=8512, high concentration screen): 93.8%
- remaining activity at 1.25 µM ([2]; Well no.=8512, low concentration screen): 103%

Compound: COc1ccc(Cl)cc1C(=O)NCCc1ccc(S(=O)(=O)NC(=O)NC2CCCCC2)cc1 [Glibenclamide]
- remaining activity at 3.75 µM ([1]; Well no.=475, high concentration screen): 102%
- remaining activity at 1.25 µM ([2]; Well no.=475, low concentration screen): 101%

Compound: CCC1=C(C)CN(C(=O)NCCc2ccc(S(=O)(=O)NC(=O)N[C@H]3CC[C@H](C)CC3)cc2)C1=O [Glimepiride]
- remaining activity at 3.75 µM ([1]; Well no.=2178, high concentration screen): 97%
- remaining activity at 1.25 µM ([2]; Well no.=2178, low concentration screen): 96.4%

Compound: CN1C(=O)[C@]23CC4=CC=C[C@H](O)[C@H]4N2C(=O)[C@@]1(CO)SS3 [Gliotoxin]
- remaining activity at 3.75 µM ([1]; Well no.=3323, high concentration screen): 95.5%
- remaining activity at 1.25 µM ([2]; Well no.=3323, low concentration screen): 94.1%

Compound: Cc1cnc(C(=O)NCCc2ccc(S(=O)(=O)NC(=O)NC3CCCCC3)cc2)cn1 [Glipizide]
- remaining activity at 3.75 µM ([1]; Well no.=700, high concentration screen): 94.3%
- remaining activity at 3.75 µM ([1]; Well no.=1605, high concentration screen): 93%
- remaining activity at 1.25 µM ([2]; Well no.=700, low concentration screen): 91.5%
- remaining activity at 1.25 µM ([2]; Well no.=1605, low concentration screen): 96.2%

Compound: COc1ccc2c(c1)C(=O)N(CCc1ccc(S(=O)(=O)NC(=O)NC3CCCCC3)cc1)C(=O)C2(C)C [Gliquidone]
- remaining activity at 3.75 µM ([1]; Well no.=5369, high concentration screen): 95.2%
- remaining activity at 1.25 µM ([2]; Well no.=5369, low concentration screen): 97.2%

Compound: N[C@@H](CCC(=O)N[C@@H](CS)C(=O)NCC(=O)O)C(=O)O [Glutathione]
- remaining activity at 3.75 µM ([1]; Well no.=4049, high concentration screen): 100%
- remaining activity at 1.25 µM ([2]; Well no.=4049, low concentration screen): 99.4%

Compound: COc1ccc(Cl)cc1C(=O)NCCc1ccc(S(=O)(=O)NC(=O)NC2CCCCC2)cc1 [Glyburide]
- remaining activity at 3.75 µM ([1]; Well no.=1806, high concentration screen): 97.3%
- remaining activity at 1.25 µM ([2]; Well no.=1806, low concentration screen): 96.5%

Compound: NCC(=O)O [Glycine]
- remaining activity at 3.75 µM ([1]; Well no.=7699, high concentration screen): 108%
- remaining activity at 1.25 µM ([2]; Well no.=7699, low concentration screen): 106%

Compound: COc1cc2c(=O)c(-c3ccc(O)cc3)coc2cc1O [Glycitein]
- remaining activity at 3.75 µM ([1]; Well no.=6248, high concentration screen): 101%
- remaining activity at 1.25 µM ([2]; Well no.=6248, low concentration screen): 98.2%

Compound: C[C@H](CCC(=O)NCC(=O)O)[C@H]1CC[C@H]2[C@@H]3[C@H](O)C[C@@H]4C[C@H](O)CC[C@]4(C)[C@H]3CC[C@]12C [Glycochenodeoxycholic acid]
- remaining activity at 3.75 µM ([1]; Well no.=7020, high concentration screen): 102%
- remaining activity at 1.25 µM ([2]; Well no.=7020, low concentration screen): 105%
- remaining activity at 1.25 µM ([2]; Well no.=7257, low concentration screen): 103%

Compound: C[C@H](CCC(=O)NCC(=O)O)[C@H]1CC[C@H]2[C@@H]3[C@H](O)C[C@@H]4C[C@H](O)CC[C@]4(C)[C@H]3C[C@H](O)[C@]12C [Glycocholic acid]
- remaining activity at 3.75 µM ([1]; Well no.=7068, high concentration screen): 105%
- remaining activity at 3.75 µM ([1]; Well no.=7165, high concentration screen): 101%
- remaining activity at 1.25 µM ([2]; Well no.=7068, low concentration screen): 106%
- remaining activity at 1.25 µM ([2]; Well no.=7165, low concentration screen): 104%

Compound: O=C(O)CO [Glycolic acid]
- remaining activity at 3.75 µM ([1]; Well no.=6981, high concentration screen): 98.4%
- remaining activity at 1.25 µM ([2]; Well no.=6981, low concentration screen): 97.8%

Compound: C[N+]1(C)CCC(OC(=O)C(O)(c2ccccc2)C2CCCC2)C1 (stereo not drawn) [Glycopyrrolate]
- remaining activity at 3.75 µM ([1]; Well no.=7471, high concentration screen): 103%
- remaining activity at 1.25 µM ([2]; Well no.=7471, low concentration screen): 102%

Compound: C[C@H](CCC(=O)NCC(=O)O)[C@H]1CC[C@H]2[C@@H]3[C@@H](O)C[C@@H]4C[C@H](O)CC[C@]4(C)[C@H]3CC[C@]12C [Glycoursodeoxycholic acid]
- remaining activity at 3.75 µM ([1]; Well no.=7311, high concentration screen): 106%
- remaining activity at 1.25 µM ([2]; Well no.=7311, low concentration screen): 108%

Compound: NCC(=O)NCC(=O)O [Glycylglycine] (H-Gly-Gly-OH)
- remaining activity at 3.75 µM ([1]; Well no.=6641, high concentration screen): 102%
- remaining activity at 1.25 µM ([2]; Well no.=6641, low concentration screen): 100%

Compound: CC1(C)[C@@H](O[C@H]2O[C@H](C(=O)O)[C@@H](O)[C@H](O)[C@H]2O[C@@H]2O[C@H](C(=O)O)[C@@H](O)[C@H](O)[C@H]2O)CC[C@]2(C)[C@H]3C(=O)C=C4[C@@H]5C[C@@](C)(C(=O)O)CC[C@]5(C)CC[C@@]4(C)[C@]3(C)CC[C@@H]12 [Glycyrrhizic acid]
- remaining activity at 3.75 µM ([1]; Well no.=5196, high concentration screen): 93.8%
- remaining activity at 1.25 µM ([2]; Well no.=5196, low concentration screen): 106%

Compound: COc1cc2c(c(OC)c1OC)-c1c(cc3c(c1OC)OCO3)C[C@H](C)[C@](C)(O)C2 [Gomisin A]
- remaining activity at 3.75 µM ([1]; Well no.=5817, high concentration screen): 104%
- remaining activity at 1.25 µM ([2]; Well no.=5817, low concentration screen): 103%

Compound: CC(C)C[C@H](NC(=O)CNC(=O)[C@H](Cc1ccc(O)cc1)NC(=O)[C@H](CO)NC(=O)[C@H](Cc1c[nH]c2ccccc12)NC(=O)[C@H](Cc1cnc[nH]1)NC(=O)[C@@H]1CCC(=O)N1)C(=O)N[C@@H](CCCNC(=N)N)C(=O)N1CCC[C@H]1C(=O)NCC(N)=O [Gonadorelin (acetate)]
- remaining activity at 3.75 µM ([1]; Well no.=6276, high concentration screen): 106%
- remaining activity at 1.25 µM ([2]; Well no.=6276, low concentration screen): 104%

Compound: CC(C)C[C@H](NC(=O)[C@@H](COC(C)(C)C)NC(=O)[C@H](Cc1ccc(O)cc1)NC(=O)[C@H](CO)NC(=O)[C@H](Cc1c[nH]c2ccccc12)NC(=O)[C@H](Cc1cnc[nH]1)NC(=O)[C@@H]1CCC(=O)N1)C(=O)N[C@@H](CCCNC(=N)N)C(=O)N1CCC[C@H]1C(=O)NNC(N)=O [Goserelin (acetate)]
- remaining activity at 3.75 µM ([1]; Well no.=7338, high concentration screen): 95%
- remaining activity at 1.25 µM ([2]; Well no.=7338, low concentration screen): 97.1%

Compound: CC(C)C[C@H](NC(=O)[C@@H](COC(C)(C)C)NC(=O)[C@H](Cc1ccc(O)cc1)NC(=O)[C@H](CO)NC(=O)[C@H](Cc1c[nH]c2ccccc12)NC(=O)[C@H](Cc1cnc[nH]1)NC(=O)[C@@H]1CCC(=O)N1)C(=O)N[C@@H](CCCNC(=N)N)C(=O)N1CCC[C@H]1C(=O)NNC(N)=O [Goserelin]
- remaining activity at 3.75 µM ([1]; Well no.=1624, high concentration screen): 101%
- remaining activity at 1.25 µM ([2]; Well no.=1624, low concentration screen): 98.9%

Compound: Cc1cc2c(C(C)C)c(O)c(O)c(C=O)c2c(O)c1-c1c(C)cc2c(C(C)C)c(O)c(O)c(C=O)c2c1O [Gossypol]
- remaining activity at 3.75 µM ([1]; Well no.=3325, high concentration screen): 99.3%
- remaining activity at 3.75 µM ([1]; Well no.=3953, high concentration screen): 98.4%
- remaining activity at 1.25 µM ([2]; Well no.=3325, low concentration screen): 98.8%
- remaining activity at 1.25 µM ([2]; Well no.=3953, low concentration screen): 102%

Compound: CN(C)Cc1c[nH]c2ccccc12 [Gramine]
- remaining activity at 3.75 µM ([1]; Well no.=3284, high concentration screen): 99.5%
- remaining activity at 1.25 µM ([2]; Well no.=3284, low concentration screen): 97.9%

Compound: CN1[C@@H]2CCC[C@H]1C[C@@H](NC(=O)c1nn(C)c3ccccc13)C2 [Granisetron (Hydrochloride)]
- remaining activity at 3.75 µM ([1]; Well no.=6223, high concentration screen): 102%
- remaining activity at 1.25 µM ([2]; Well no.=6223, low concentration screen): 104%
